# In patent US12629370B2, “Treatment of prostate cancer” (Sumitomo Pharma Co., Ltd., priority 2016, dated 2026):
# Values joined by “and” are separate entries in the source; they are usually repeats but may differ in a detail not shown here. Identical values can stand only once. “Also recorded” adds a separate entry of the source. Like-named read-outs stand apart in the source and are kept apart here.
# What was measured:
# [1] = test system: serum testosterone; experiment: Example 7: serum testosterone lowering in healthy men; format: in vivo, human; conditions: for mean serum testosterone at end of 16 days: baseline 10.40 nmol/L
# Procedure: (§1) FSH, DHT, and insulin-like growth factor 1 (IGF-1; Parts 3 and 4 only) were measured in a subset of samples. Serum testosterone was assayed using a conventional immunoassay for screening (LLOQ=0.4 nmol/L). A validated LC/MS/MS method, with an LLOQ of 0.173 nmol/L and a ULOQ of 10.425 nmol/L, was used for all subsequent baseline (i.e., the subject's serum hormone levels prior to treatment commencing) and postdose measurements.
# Pharmacodynamic measures included serum concentrations of testosterone, DHT, LH, and FSH. In Part 2, the number and percentage of subjects with average serum testosterone levels less than 0.69 nmol/L occurring during the second week of dosing were tabulated. In Parts 3 and 4, the number and percentage of subjects with serum testosterone levels consistently less than 0.69 nmol/L from Day 14 through Day 28 were tabulated.
# [2] = test system: serum testosterone; experiment: Example 6: serum testosterone (CLIA) in men with non-metastatic prostate cancer, Parts A and B; format: in vivo, human
# [3] = test system: healthy men; experiment: Example 7: safety and tolerability in healthy men
# Procedure: The 40 mg dose was administered once per day with a single load dose of 360 mg on Day 1 of the 14 days of treatment administration. For the 20 mg dosages, one 20 mg dose was administered with loading doses of 320 mg on Day 1, 240 mg on Day 2, and 160 mg on Day 3, and the other 20 mg dose was administered with loading doses of 320 mg on Day 1 and 160 mg on Day 2. […] The 40 mg dose was administered with loading doses of 320 mg and 160 mg on Days 1 and 2 of treatment, respectively.
# [4] = Example 7: serum testosterone lowering in healthy men; format: in vivo; conditions: male, human, plasma, oral, maintenance doses of 80 mg or greater
# [5] = FIG. 22
# Description: Table printed on a drawing sheet, FIG. 22
# First reader's note: The rows 'Plasma' and 'Urine' are section headings giving the matrix; the raised marks a and c are printed, but their footnotes are not on the sheet, and the meaning of the values in brackets is not stated.)
# [6] = Example 7: single and multiple dose pharmacokinetics and food effect in healthy men; format: in vivo, human; conditions: for half-life: read-out: mean plasma T1/2 (converted)
# Procedure: Samples were analyzed using validated liquid chromatography with tandem mass spectrometry (LC/MS/MS) methods. The LLOQ was 0.0100 ng/ml for plasma and 0.500 ng/ml for urine.
# Then, a formal assessment was performed using both analysis of variance (ANOVA) and power model approaches. […] In Part 2, steady state attainment was determined based on visual inspection of mean observed predose plasma concentration during multiple dosing (Ctrough) versus time profiles at each dose level. Noncompartmental analysis of Part 3 and 4 data were not planned given the limited number of postdose samples collected per subject on Days 1 and 28.
# [7] = FIG. 23
# Description: Table printed on a drawing sheet, FIG. 23
# First reader's note: The rows 'Plasma' and 'Urine' are section heads (matrix); the sheet explains neither the footnote marks a and b nor the values in brackets.
# [8] = test system: patients with intermediate-risk prostate cancer; experiment: Example 9: quality of life (EORTC QLQ-C30, QLQ-PR25, AMS); format: in vivo, human
# Procedure: Eligible male patients were aged ≥18 years with a histologically confirmed diagnosis of localized, intermediate-risk prostate cancer, for whom 6-month neoadjuvant and adjuvant androgen deprivation therapy (ADT) to external beam radiation therapy (EBRT) was indicated. The criteria for establishing intermediate-risk prostate cancer included the presence of one of the following, without any high-risk feature: T2b-T2c disease, Gleason score 7, or prostate-specific antigen (PSA) 10-20 ng/mL. Additional inclusion criteria included: EBRT scheduled to begin ≥12 weeks after baseline visit; screening serum testosterone >150 ng/dL (5.2 nmol/L); screening PSA concentration >2 ng/ml; body mass index ≥18.0 at screening or baseline (i.e., the subject's BMI prior to treatment commencing); Eastern Cooperative Oncology Group performance status of 0 or 1 at screening. Based on investigator discretion and clinical assessment of the patient's overall medical and disease status, participation was allowed for older patients with high-risk disease (e.g., based on Gleason score or tumor status) who were deemed likely to benefit from 6 months of neoadjuvant/adjuvant ADT. Most patients had intermediate-risk disease. However, a few patients, based on Gleason score or tumor, node, and metastasis staging system, were technically of higher than intermediate risk.
# Both treatment arms received treatment for 24 weeks. Patients remained on treatment for at least 12 weeks before the start of external beam radiation treatment (EBRT), which was initiated for most patients between Week 13, Day 1 and Week 15, Day 1. EBRT began no later than day 1, week 17.
# Quality of Life (QoL) was assessed via the core 30-item European Organisation for Research and Treatment of Cancer quality of life questionnaire (EORTC QLQ-C30), the 25-item prostate cancer module EORTC questionnaire (EORTC QLQ-PR25), and the aging male survey (AMS). QoL assessments were completed at screening, on day 1 of weeks 1, 5, 13, and 25, and at weeks 29, 33, and 37.
# [9] = test system: serum LH, FSH, DHT and SHBG; experiment: Example 6: serum LH, FSH, DHT and SHBG; format: in vivo, human; conditions: for serum LH, FSH and DHT concentrations: all dose levels
# [10] = test system: serum FSH; experiment: Example 7: serum FSH in healthy men; format: in vivo, human
# Procedure: as §1
# [11] = from baseline (day 1) to week 25
smiles,measurement,setting,value
"CONC(=O)Nc1ccc(-c2sc3c(c2CN(C)C)c(=O)n(-c2ccc(OC)nn2)c(=O)n3Cc2c(F)cccc2F)cc1 [Compound 1, N-(4-(1-(2,6-difluorobenzyl)-5-((dimethylamino)methyl)-3-(6-methoxy-3-pyridazinyl)-2,4-dioxo-1,2,3,4-tetrahydrothieno[2,3-d]pyrimidin-6-yl)phenyl)-N′-methoxyurea]",suppression of serum LH and testosterone during the second week,"[1]; 20 mg QD, 14 days",insufficient in maintaining adequate suppression
same,castration outcome,"[1]; 40 mg QD, 28 days",ineffective in maintaining castration between Days 14 and 28
same,castration outcome,"[1]; 60 mg QD, 28 days",intermediate to those of 40 and 80 mg
same,time to reach castrate level,[1]; 80 mg once daily,up to 21 days
same,castration outcome,"[1]; 320 mg day 1, 160 mg day 2, 40 mg day 3 to 28",did not maintain castrate level
same,castration outcome,[1]; 360 mg Day 1 and 40 mg day 2 to 14,rapid castration level and sustained castration level
same,time to castrate levels (<50 ng/dL),[1]; 360 mg single dose,≤ 24 h
same,effective medical castration,[1]; 40 to 180 mg daily (14 days) and 80 to 160 mg daily (28 days),consistently achieved
same,profound castration threshold (average serum testosterone <0.69 nmol/L),"[1]; 14 days at 40, 80 and 180 mg",achieved
same,castration during third and fourth weeks,"[1]; 28 days, 160 mg (Part 3) and 80 mg (Part 4)",effective at achieving medical (<1.73 nmol/L) and profound (<0.69 nmol/L) castration
same,mean serum testosterone at end of 16 days,"[1]; Part 2, 80 mg",0.3565 nmol/L
same,mean serum testosterone at end of 16 days,"[1]; Part 2, 180 mg",0.4320 nmol/L
same,minimal fully effective / recommended maintenance dose for sustained medical castration,[1]; in vivo,≥ 80 mg QD
same,effective medical castration,"[1]; maintenance doses of 80, 160 and 180 mg QD",consistently achieved
same,duration of mean serum testosterone suppression,"[1]; single doses of 80, 120, 180 and 360 mg",maintained through 36 hours postdose
same,time for mean serum testosterone to fall below medical castration levels (below 50 ng/dL),"[2]; Part A, load dose then maintenance 80, 120 or 160 mg QD",up to 3 days
same,when serum testosterone achieved medical castration levels in all subjects,"[2]; Part A, maintained up to 3 days after last dose on Day 28",between Day 2 and Day 14
same,time for mean serum testosterone to be suppressed below medical castration levels (below 50 ng/dL),"[2]; Part B, 320 mg load then 80 or 120 mg QD",≤ 4 days
same,when serum testosterone reached medical castration levels in all subjects,"[2]; Part B, maintained throughout evaluation period",between Day 2 and Week 3
same,most common treatment emergent adverse events,[3]; across all dose cohorts,"bradycardia, hot flush, and headache"
same,changes in QT/QTc intervals,[3]; in vivo,consistent with those described in the literature with other medical castration agents
same,most common drug-related TEAE,[3]; in vivo,hot flash
same,overall safety and tolerability,[3]; single and multiple doses,safe and well tolerated
same,"deaths, SAEs or severe AEs",[3]; single dose or multiple dose for 14 or 28 days,"no deaths, serious adverse events (SAEs), or severe AEs"
same,transaminases,[3]; without symptoms or changes in total bilirubin,Mild to moderate transaminase elevations
same,concentration at 28 days,[4],> 4 ng/mL
same,AUC0-24 (ng•h/mL),[5],1358 (53.1) ng•h/mL and 1878 (51.9) ng•h/mL
same,CLr (L/h),[5],7.29 (13.2) L/h and 7.25 (36.2) L/h and 7.36 (25.9) L/h
same,Fe (%),[5],0.934 (39.4) % and 2.20 (74.7) % and 2.61 (62.3) % and 3.43 (29.4) %
same,decrease in mean Cmax and mean plasma AUC0-∞ on co-administration with food versus fasting,[6]; 180 mg single dose,approximately 50%
same,"median Tmax, fasting conditions",[6]; 180 mg single dose,1.75 h
same,"median Tmax, fed conditions","[6]; 180 mg single dose, high fat breakfast",5.00 h
same,"decrease in mean plasma AUC (systemic exposure), dosing 30 min before standardized meal versus fasted","[6]; 180 mg, Part 2 Day 1 versus Part 1 fasted",approximately 28%
same,dose proportionality of mean Cmax at steady state,[6]; 20 to 180 mg QD,increased slightly more than dose-proportionately
same,dose proportionality of mean plasma AUC0-tau at steady state,[6]; 20 to 180 mg QD,increased in a dose-proportional manner
same,median Tmax,[6]; across all doses studied,~2 h
same,Compound 1 excreted unchanged in urine,[6]; after single and repeat dosing,Less than 4%
same,Tmax,"[6]; male, human, plasma, oral, 180 mg single dose, high fat breakfast, read-out: median Tmax, fed conditions",5 h
same,half-life,"[6]; male, human, plasma, oral, across the 20 to 180 mg QD dose range",1.5 to 2.71 days
same,half-life,"[6]; male, human, plasma, oral, repeat dosing, 20 mg QD",2.69 days
same,half-life,"[6]; male, human, plasma, oral, repeat dosing, 180 mg QD",1.49 days
same,dose proportionality of mean Cmax and mean plasma AUC0-∞,[6]; single doses of 80 mg to 360 mg,dosed proportionally over 80-360 mg range; also recorded: approximate dose-proportional increases
same,increase in systemic exposure following QD dosing,[6]; steady state,approximately 2 fold
same,CLr (L/h),[7],6.92 (29.5) L/h and 5.51 (26.7) L/h and 6.42 (25.0) L/h and 7.66 (17.4) L/h and 7.43 (16.2) L/h
same,Fe (%),[7],1.44 (31.8) % and 1.35 (40.0) % and 1.76 (38.6) % and 1.89 (20.2) % and 2.88 (45.6) %
same,t1/2(h),[7],50.6 (20.2) h and 49.4 (30.6) h and 36.5 (17.4) h
same,"Hormonal treatment-related symptoms, Mean (SD) change",[8]; [11],13.4 (12.1)
same,"Sexual activity, Mean (SD) change",[8]; [11],−19.7 (29.4)
same,"Global health/QoL, Mean (SD) change",[8]; from baseline to week 36 (EOS),−7.7 (17.8)
same,"Hormonal treatment-related symptoms, Mean (SD) change",[8]; from baseline to week 36 (EOS),8.5 (11.3)
same,"Sexual activity, Mean (SD) change",[8]; from baseline to week 36 (EOS),−7.3 (30.0)
same,"Global health/QoL, Mean (SD) change",[8]; from week 25 to week 36,2.3 (16.6)
same,"Hormonal treatment-related symptoms, Mean (SD) change",[8]; from week 25 to week 36,−5.0 (10.3)
same,"Sexual activity, Mean (SD) change",[8]; from week 25 to week 36,12.1 (21.8)
same,QOL (AMS and sexual activity scores) from EOT through EOS,[8]; in vivo,appeared to improve more in the Compound 1 than the degarelix group
same,"serum SHBG, baseline versus postdose",[9]; Part A,no particular changes
same,"serum LH, FSH and DHT concentrations",[9]; Part A,rapidly suppressed
same,"serum SHBG, baseline versus postdose",[9]; Part B,no particular changes
same,"serum LH, FSH and DHT concentrations",[9]; Part B,rapidly suppressed
same,time postdose at which mean serum FSH began to decrease,[10]; Part 1 single doses 80-360 mg,2 h
same,time postdose of lowest mean serum FSH,[10]; Part 1 single doses 80-360 mg,48 h
same,mean serum FSH at end of 16 days,"[10]; Part 2, 80 mg, baseline 6.07 IU/L",0.67 IU/L
same,mean serum FSH at end of 16 days,"[10]; Part 2, 180 mg, baseline 3.88 IU/L",0.33 IU/L
